Assay results from US20230076310A1, “COMPOSITION USING NOVEL LACTOBACILLUS PLANTARUM KC3 STRAIN FOR PREVENTION OR TREATMENT OF IMMUNE IMPAIRMENT, RESPIRATORY INFLAMMATORY DISEASE, ALLERGY, AND ASTHMA AND USE THEREOF” (KT&G CORPORATION, priority 2020, published 2023).

Experiments:
Assay type in all cases: in vivo, BALb/c male mice
neutrophils in BAL fluid = experiment: Number of neutrophils in BAL fluid, mouse model of respiratory damage by air pollutants; conditions: oral, 11 days (KC3 1×10^9 CFU/mouse; positive control 3 mg per kg BW per day)
Procedure: (§1) BALb/c male mice (Orient Bio Inc., 8-week-old) were divided into groups of 6 mice, and for all groups except for the normal group, components of air pollutants, i.e., 10 mg/ml of coal combustible materials, 10 mg/ml of fly ash, and 5 mg/ml of diesel exhaust particle (DEP) were diluted so that a final concentration of Alum was 1%, and so that a final concentration of each component was 1.5 mg/ml for coal combustible material/fly ash and […] for DEP in a mixture. Then, on each of the 4th, 7th, and 10th days from the start of the experiment, 50 μl of the mixture was directly injected into the airway and nose of the experimental animals according to the Intra-Nazal-Trachea (INT) injection method described in the document (Lim et al., Free Radic Biol Med. 25(6), 635-644. (1998), Shin et al., Korean J. Medicinal Crop Sci 27(3), 218-231. (2019)).
(§2) For a positive control group (dexamethasone, Sigma D2915), lactic acid bacteria (Lactobacillus plantarum KC3, KC3) was diluted at a concentration of 1×10^9 CFU/mouse in a solution containing 0.5% sodium carboxymethyl cellulose (CMC, 419273, Sigma-Aldrich), and then orally administered at a dosage of 3 mg per kg of body weight (BW) per day (for 11 days). On the 12th day after the start of the experiment, an autopsy was performed on the mice, and bronchoalveolar lavage (BAL) fluid was collected. […]

TNF-α = experiment: Inflammation factors in BAL fluid (ELISA), mouse model of respiratory damage by air pollutants; conditions: oral, 11 days (KC3 1×10^9 CFU/mouse; positive control 3 mg per kg BW per day)
Procedure: as §1
(§3) For a positive control group (dexamethasone, Sigma D2915), lactic acid bacteria (Lactobacillus plantarum KC3, KC3) was diluted at a concentration of 1×10^9 CFU/mouse in a solution containing 0.5% sodium carboxymethyl cellulose (CMC, 419273, Sigma-Aldrich), and then orally administered at a dosage of 3 mg per kg of body weight (BW) per day (for 11 days). On the 12th day after the start of the experiment, an autopsy was performed on the mice, and bronchoalveolar lavage (BAL) fluid was collected.
(§4) To confirm effects of the samples in Examples above on expression levels of inflammation factors in the BAL fluid, an experiment was carried out as follows by applying the method described in the document (Brandt E B et al., J. Allergy Clin. Immunol., 132(5):1194-1204, (2013)).
(§5) An evaluation test was performed using ELISA to measure the expression levels of inflammation factors, such as IL-17A, TNF-α MIP2, and CXCL-1, in the BAL fluid.
(§6) The experiment was carried out in the same manner as in Experimental Examples 4-2 and 4-3, except that […].
(§7) The expression levels of IL-17A, TNF-α MIP2, and CXCL-1 in the BAL fluid were measured using ELISA. IL-17A antibodies (M1700, R&D Systems, Minneapolis, USA), TNF-α antibodies (MTA00B, R&D Systems, Minneapolis, USA), MIP2 antibodies (MM200, R&D Systems, Minneapolis, USA), and CXCL-1 antibodies (MKC00B, R&D Systems, Minneapolis, USA) were diluted with a buffer solution and coated micro-wells, and then cultured at 4° C. for 16 hours. Each well was washed with a washing buffer solution three times, and 10-fold diluted […] was dispensed at 100 μl per well.
(§8) After being left at room temperature for one hour, the wells were washed twice. Then, 100 μl of Avidin-HRP-conjugated antibodies (DY007, R&D Systems, Minneapolis, USA) was treated thereon, and the wells were left again at room temperature for one hour, followed by washing again. A TMB substrate solution (DY007, R&D Systems, Minneapolis, USA) was dispensed at 100 μl per well, and the well plate was left in shadow for 30 minutes. Then, 50 μl of a stopping solution (DY007, R&D Systems, Minneapolis, USA) was treated thereon, and absorbance of the […] was measured at 450 nm.

CXCL-1 = experiment: as above; conditions: oral, 11 days (KC3 1×10^9 CFU/mouse; positive control 3 mg per kg BW per day)
Procedure: as §1, §3, §4, §5, §6, §7, §8

MIP2 = experiment: as above; conditions: oral, 11 days (KC3 1×10^9 CFU/mouse; positive control 3 mg per kg BW per day)
Procedure: as §1, §3, §4, §5, §6, §7, §8

IL-17A = experiment: as above; conditions: oral, 11 days (KC3 1×10^9 CFU/mouse; positive control 3 mg per kg BW per day)
Procedure: as §1, §3, §4, §5, §6, §7, §8

[1] = tested on: total number of cells in bronchoalveolar lavage (BAL) fluid; experiment: Total number of cells in BAL fluid, mouse model of respiratory damage by air pollutants; conditions: oral, 11 days (KC3 1×10^9 CFU/mouse; positive control 3 mg per kg BW per day), BAL fluid on 12th day
Procedure: as §1, §2

## C[C@@H]1C[C@H]2[C@@H]3CCC4=CC(=O)C=C[C@]4(C)[C@@]3(F)[C@@H](O)C[C@]2(C)[C@@]1(O)C(=O)CO [Positive control group, dexamethasone]
Neutrophils in BAL fluid
  Inhibition rate (based on induced group), neutrophils: 10%
Neutrophils in BAL fluid; Diff-Qick staining, induction group 119 ± 13
  Neutrophile No of BAL cel (400X): 108 ± 9
TNF-α
  TNF-α inhibition rate (%) based on induced group: (66%)
TNF-α; ELISA, induction group 366 ± 45
  TNF-α concentration in BAL fluid: 121 ± 14 pg/mL
CXCL-1
  CXCL-1 inhibition rate (%) based on induced group: (46%)
CXCL-1; ELISA, induction group 327 ± 41
  CXCL-1 concentration in BAL fluid: 174 ± 15 pg/mL
MIP2
  MIP2 inhibition rate (%) based on induced group: (19%)
MIP2; ELISA, induction group 68 ± 7
  MIP2 concentration in BAL fluid: 55 ± 9 pg/mL
IL-17A
  IL-17A inhibition rate (%) based on induced group: (47%)
IL-17A; ELISA, induction group 13.4 ± 1.5
  IL-17A concentration in BAL fluid: 7.0 ± 0.8 pg/mL
[1]
  Inhibition rate (based on induction group), total BAL cell: 11%
[1]; induction group 81.2 ± 19.8
  Total BAL cell: 72.6 ± 9.5 ×10^4 cells/ml
